Reference: EP0499337A1, “Use of tetra:hydro-thieno-pyrido-indole derivatives for the treatment of skin disorders” (YAMANOUCHI EUROPE B.V., priority 1991, dated 1992)
Like-named read-outs stand apart in the source and are kept apart here.

Assays:
[1] = test system: PMHL; assay: Nonspecific cytotoxicity, trypane blue exclusion test; assay type: cell-based, human
Procedure: Nonspecific cytotoxicity of the test compounds on PMHL was assessed by […] blue exclusion test.

[2] = test system: Normal human keratinocytes; assay: Cornified envelope formation (keratinocyte differentiation); assay type: cell-based; details: 4 h plus 48 h exposure, increasing concentrations
Procedure: Normal human keratinocytes were grown to confluence at low calcium concentration in the presence of 5% FCS, 1 µM isoproterenol and 10 ng EGF per ml. They were first exposed for 4 h to increasing concentrations of test compounds and subsequently reincubated for 48 h in medium containing normal calcium concentration and the same additives, test compounds and [³H]-leucine (1 µCi/ml). Thereafter, both spontaneous and ionophore-induced cornified envelope (CE) formation was determined [King et al. (1986) Exp. Cell. Res., 167: 252].

[3] = test system: HaCaT cells; assay: Keratinocyte morphology, phase contrast microscopy; assay type: cell-based, human; details: 30 nM, monitored during 72 hours
Procedure: HaCaT cells were cultured under standard conditions. 24 h after plating (2.5 x 10⁶ cells) the medium was replaced by medium containing the test compounds. During 72 hours cell morphology was frequently monitored using a phase contrast photomicroscope (Olympus IMT-2, Tokyo, Japan).

[4] = test system: HaCaT cells; assay: Cytotoxicity, LDH release into the culture medium; details: 48 h after onset of drug exposure
Procedure: HaCaT cells were grown as described.
Cytotoxicity was assessed by measurements of the content of intracellular lactate dehydrogenase (LDH) activity released into the culture medium during 48 h after onset of drug exposure. Possible drug induced detachment of the HaCaT cells from the plate was assessed by collection of the medium from the wells and centrifugation (80 x g, 10 min.) The resulting pellet was suspended in 10 µl medium and cells were counted in a haemocytometer.

[5] = test system: human polymorphonuclear leukocytes (PMNL); assay: ROS generation from PMNL, lucigenin-amplified chemiluminescence; assay type: cell-based; details: Homo sapiens, PMNL, IC₅₀-values
Procedure: Human PMNL were isolated from fresh blood (anticoagulated with sodium citrate) by erythrocyte sedimentation with 1% dextran (Pharmacia, Uppsala, Sweden) centrifugation of the resulting supernatant, followed by hypoosmotic lysis to remove red blood cells. Washed cells were adjusted to 2 x 10⁶ cells/ml in PBS containing fetal calf serum (2%; v/v). Test compounds dissolved in DMSO were diluted with the assay buffer to a final DMSO concentration of 0.5% (v/v).
Then the test compounds (100 µl) were added with subsequent recording for another 16 min period. […] Results were expressed as percent of inhibition or stimulation of the controls (mean of two integrals) in a single experiment.

[6] = test system: PKC from the central nervous system; assay: Phosphorylation of synaptosomal plasma membranes: B-50 phosphorylation; assay type: biochemical; details: for phosphorylation of B-50 (% of control): without addition of CaM
Procedure: Subcellular fractionation and phosphorylation assay were performed according to Kristjansson et al., (1982). […] After a preincubation at 30°C for 5 min, the phosphorylation reaction was started by adding the ATP. The reaction was stopped after 15 sec. All compounds to be tested were present at the start of the preincubation. […]

[7] = test system: 50 kDa protein; assay: Phosphorylation of synaptosomal plasma membranes: CaM-dependent phosphorylation of the 50 kDa protein; assay type: biochemical; details: in the presence of added CaM
Procedure: Subcellular fractionation and phosphorylation assay were performed according to Kristjansson et al., (1982). […] After a preincubation at 30°C for 5 min, the phosphorylation reaction was started by adding the ATP. The reaction was stopped after 15 sec. All compounds to be tested were present at the start of the preincubation. […] Phosphorylation of B-50 and the 50 kDa protein, which was only phosphorylated after addition of CaM, was measured in the presence of exogenous CaM (3 units/assay) and quantified.

[8] = test system: rat brain synaptosomes; assay: Noradrenaline release from permeated synaptosomes; assay type: cell-based; details: 100 µM
Procedure: Highly purified synaptosomes were prepared according to Dunkley and Robinson (1987). The synaptosomes were diluted with 3 ml buffer A (123 mM NaCl, 5 mM KCl, 2 mM CaCl₂, […], 1.15 mM NaH₂PO₄, 5.6 mM glucose, 20 mM PIPES pH 6.8, gassed with O₂:CO₂, 95:5) and incubated for 15 min at 37°C. Then 2.5 µCi noradrenalin (NA) was added, incubation was continued for 15 min and the synaptosomes were centrifuged for 20 min at 600 x g. The resulting pellet was washed twice in buffer A without CaCl₂ and resuspended (1 mg protein/ml).
For measurement of NA release, prelabeled synaptosomes were incubated at 37°C in buffer A containing Na₂ATP and EGTA-buffered Ca²⁺ in concentrations as indicated (final volume 120 µl). The release reaction was started by adding synaptosomes (20 µg protein) to the reaction mixture and terminated after 5 min by 30 sec centrifugation at 10,000 x g. The supernatant (90 µl) was collected and counted in a Packard Model 2,000 CA liquid scintillation counter with Picofluor as a scintillation cocktail. NA release was expressed as % of total [³H]-NA incorporated. Total NA incorporation was determined by measuring [³H]-incorporation in 20 µg prelabeled washed synaptosomes.

[9] = test system: TPA-induced ear edema in mice; assay: Intraperitoneal administration, TPA-induced ear edema in mice; assay type: in vivo; details: intraperitoneally, 30, 10 or 3.3 mg/kg
Procedure: Mice were injected intraperitoneally with 30, 10 or 3.3 mg/kg body weight of the test substances, sphingosine in carboxymethylcellulose (0.5%) and tiflucarbine in physiologic Saline, 10 ml/kg body weight. After 60 minutes the mire were challenged on the left ear with a 0.01 wt% solution of 12-O-tetradecanoylphorbol-13-acetate (TPA) in a 80/20 mixture of acetone/water. At 0, 3, 6 and 24 h after challenge, ear thickness was determined.

[10] = 16 min, compound added at peak, 16 min after opsonized zymosan, read-out: Peak CL
[11] = 30 min preincubation, unstimulated, read-out: Spontaneous CL
[12] = stimulation with opsonized zymosan after preincubation, read-out: Induced CL

Compound	Trypane blue [1] [µM]	LDH release [4] [µM]	IC50 [5, 10] [µM]	IC50 [5, 11] [µM]	IC50 [5, 12] [µM]	other results
CN[C@@H]1C[C@H]2O[C@@](C)([C@@H]1OC)n1c3ccccc3c3c4c(c5c6ccccc6n2c5c31)C(=O)NC4 [Staurosporine]	3	10				spontaneous CE formation [2]: marked effect; effect on morphology [3]: effects on morphology
CC(CN1c2ccccc2Sc2ccccc21)N(C)C (stereo not drawn) [Promethazine]	100	100	62.3	23.6	31.4	
CN(C)CCCN1c2ccccc2Sc2ccc(Cl)cc21 [Chlorpromazine]	30	30	21.8	4.9	7.6	
NCCCCCCNS(=O)(=O)c1cccc2c(Cl)cccc12 [W-7, N-(6-aminohexyl)-5-chloro-1-naphthalene sulfonamide]	15	100	10	6.3	6.3	
Polymyxin B						B-50 phosphorylation ([6]; in the presence of exogenous CaM (3 units/assay)): dose-dependently inhibited; phosphorylation of B-50 (% of control) ([6]; concentration 0.1 µM): 95 ± 8 % of control; phosphorylation of B-50 (% of control) ([6]; concentration 1 µM): 103 ± 9 % of control; phosphorylation of B-50 (% of control) ([6]; concentration 10 µM): 82 ± 11 % of control; phosphorylation of B-50 (% of control) ([6]; concentration 100 µM): 18 ± 8 % of control; phosphorylation of the 50 kDa protein [7]: dose-dependently inhibited; noradrenaline release ([8]; high (10 µM) Ca²⁺): 19.4 ± 2.38 % of total [³H]-noradrenaline; noradrenaline release ([8]; low (10 nM) Ca²⁺): 16.5 ± 1.03 % of total [³H]-noradrenaline
CCCCCCCCCCCCC/C=C/[C@@H](O)[C@@H](N)CO [Sphingosine]						ear edema (ear thickness), compared with tiflucarbine [9]: more potent
CN1CCN(CCCN2c3ccccc3Sc3ccc(C(F)(F)F)cc32)CC1 [Trifluoroperazine]	100	30				
CSc1ccc2c(c1)N(CCC1CCCCN1C)c1ccccc1S2 (stereo not drawn) [Thioridazine]			10.6	2.4	6.4	
